Data: patent US10968176B2, “Pyrrolidone derivatives, oligomers and polymers” (NanoSynthons LLC, priority 2014, dated 2021)
Like-named read-outs stand apart in the source and are kept apart here.

Assay: Fluorescence excitation/emission maxima and relative response per gram (luminescence spectrometer)
Assay type: physicochemical
Description: The appropriate alkyl or aryl amine (0.05 moles) was weighed into a 100 mL round-bottom flask equipped with a magnetic stirrer and containing 15 mL of dry methanol. While stirring, the appropriate dialkyl/diaryl itaconate (0.05 moles/primary amine moiety) dissolved in 15 mL of dry methanol was added dropwise over a period of 10 min. In some cases, a moderate exotherm was noted. The reaction was allowed to stir at RT for 1 h followed by refluxing for 8-10 h. The final product was obtained by removal of the solvent with a Buchi roto-evaporator to give a solid, liquid or syrup with yields ranging from 75-98%. See Table 2 in the Examples and FIGS. 3A-3B for their structures. These final products were characterized by FTIR, ^1H—, ^13C-NMR. Their UV-vis/fluorescence properties were evaluated with a fluorospectrometer (Spectramax from Molecular Devices) yielding data as described in Table 2 in the Examples.
Itaconic acid (Sigma-Aldrich) (0.05 moles/primary amine moiety) was weighed into a 100 mL round-bottom flask equipped with a magnetic stirrer. While stirring, the appropriate alkyl or aryl amine (0.05 moles) was added dropwise over a period of 10 min. […] The flask and reaction mixture was surmounted by a reflux condenser and immersed in an oil bath and heated at 125° C. for 2-5 h. The formation of water condensate from the reaction can be noticed in the condenser. A 25 mL portion of dry methanol is then added and the reaction mixture is refluxed for 1 h. Removal of solvent on a Buchi roto-evaporator produces the desired pyrrolidone product as an oil, syrup or solid in yields ranging from 59-95%. These final products were characterized by using a Thomas-Hoover capillary melting point apparatus, FTIR and ^1H—, ^13C-NMR. Their UV-vis/fluorescence properties were evaluated with a fluorescence spectrometer (Spectramax from Molecular Devices) yielding data as described in Table 2.
Fluorescence data was acquired with a Perkin-Elmer LS50B Luminescence spectrometer. Constant slit widths (Both excitation and emission—3 nm) were used and the concentrations were adjusted to give on scale emission responses. Emission responses were divided by concentration to give response per gram and multiplied by a scaling factor chosen to set the relative response of the standard, fluorescein-Na, to 1,000,000.

[1] = scaled so that fluorescein-Na = 1,000,000
[2] = peak 1, fluorescein-Na = 1,000,000
[3] = peak 2, fluorescein-Na = 1,000,000

Row | Emission Max | Excitation Max | Relative Response/g [1] | Emission Max (peak 1) | Excitation Max (peak 1) | Relative Response/g [2] | Emission Max (peak 2) | Excitation Max (peak 2) | Relative Response/g [3] | SMILES
1 | 400 nm | 340 nm | 50.1 |  |  |  |  |  |  | c1ccc(C2=NCCN2)cc1 [2-Phenyl-2-imidazoline, reference compound]
2 | 385 nm | 245 nm | 11.8 |  |  |  |  |  |  | O=C1CCC(C(=O)O)N1 (stereo not drawn) [2-Pyrrolidone-5-carboxylic acid, reference compound]
3 | 350 nm | 300 nm | 18.7 |  |  |  |  |  |  | COC(=O)C1CC(=O)N(CCSSCCN2CC(C(=O)OC)CC2=O)C1 (stereo not drawn) [Compound 31]
4 | 380 nm | 320 nm | 391.7 |  |  |  |  |  |  | COC(=O)C1CC(=O)N(CCNC(=O)C2CC(=O)N(CCSSCCN3CC(C(=O)NCCN4CC(C(=O)OC)CC4=O)CC3=O)C2)C1 (stereo not drawn) [Compound 33]
5 | 301 nm | 277 nm | 5.8 |  |  |  |  |  |  | COC(=O)C1CC(=O)N(CCNC(=O)C2CC(=O)N(CCNC(=O)C3CC(=O)N(CCSSCCN4CC(C(=O)NCCN5CC(C(=O)NCCN6CC(C(=O)OC)CC6=O)CC5=O)CC4=O)C3)C2)C1 (stereo not drawn) [Compound 35]
6 |  |  |  | 302 nm | 268 nm | 7.0 | 565 nm | 260 nm | 6.5 | COC(=O)C1CC(=O)N(CCNC(=O)C2CC(=O)N(CCNC(=O)C3CC(=O)N(CCNC(=O)C4CC(=O)N(CCSSCCN5CC(C(=O)NCCN6CC(C(=O)NCCN7CC(C(=O)NCCN8CC(C(=O)OC)CC8=O)CC7=O)CC6=O)CC5=O)C4)C3)C2)C1 (stereo not drawn) [Compound 37]
7 | 410 nm | 335 nm | 2.7 |  |  |  |  |  |  | COC(=O)C1CC(=O)N(CCN2CC(C(=O)OC)CC2=O)C1 (stereo not drawn) [Compound 38]
8 |  |  |  | 415 nm | 355 nm | 37.8 | 420 nm | 245 nm | 11.1 | NCCNC(=O)C1CC(=O)N(CCN2CC(C(=O)NCCN)CC2=O)C1 (stereo not drawn) [Compound 39]
9 | 390 nm | 305 nm | 66.4 |  |  |  |  |  |  | COC(=O)C1CC(=O)N(CCNC(=O)C2CC(=O)N(CCN3CC(C(=O)NCCN4CC(C(=O)OC)CC4=O)CC3=O)C2)C1 (stereo not drawn) [Compound 40]
10 |  |  |  | 390 nm | 340 nm | 62.7 | 455 nm | 285 nm | 18.7 | NCCNC(=O)C1CC(=O)N(CCNC(=O)C2CC(=O)N(CCN3CC(C(=O)NCCN4CC(C(=O)NCCN)CC4=O)CC3=O)C2)C1 (stereo not drawn) [Compound 41]
11 | 405 nm | 335 nm | 30.7 |  |  |  |  |  |  | COC(=O)C1CC(=O)N(CCNC(=O)C2CC(=O)N(CCNC(=O)C3CC(=O)N(CCN4CC(C(=O)NCCN5CC(C(=O)NCCN6CC(C(=O)OC)CC6=O)CC5=O)CC4=O)C3)C2)C1 (stereo not drawn) [Compound 42]
12 | 440 nm | 355 nm | 22.8 |  |  |  |  |  |  | NCCNC(=O)C1CC(=O)N(CCNC(=O)C2CC(=O)N(CCNC(=O)C3CC(=O)N(CCN4CC(C(=O)NCCN5CC(C(=O)NCCN6CC(C(=O)NCCN)CC6=O)CC5=O)CC4=O)C3)C2)C1 (stereo not drawn) [Compound 43]
13 | 450 nm | 350 nm | 14.5 |  |  |  |  |  |  | COC(=O)C1CC(=O)N(CCNC(=O)C2CC(=O)N(CCNC(=O)C3CC(=O)N(CCNC(=O)C4CC(=O)N(CCN5CC(C(=O)NCCN6CC(C(=O)NCCN7CC(C(=O)NCCN8CC(C(=O)OC)CC8=O)CC7=O)CC6=O)CC5=O)C4)C3)C2)C1 (stereo not drawn) [Compound 44]
14 | 510 nm | 470 nm | 1,000,000.0 |  |  |  |  |  |  | O=C([O-])c1ccccc1-c1c2ccc(=O)cc-2oc2cc([O-])ccc12.[Na+].[Na+] [Fluorescein-Na, reference compound]
